From patent US7452865B2, “Antagonistic analogs of GH RH (2003)” (The Administrare's of the Tulane Educational Fund, priority 2004, dated 2008)
Where “and” joins values, the source holds several entries; their conditions need not be identical. Equal values may be shown once. Square brackets hold non-standard residues; d marks the D form. Peptide text beside a SMILES is read from it. * marks the point of attachment. Phe(4-Cl) = N[C@@H](Cc1ccc(Cl)cc1)C(=O)O; hArg = N=C(N)NCCCC[C@H](N)C(=O)O; Nle = CCCC[C@H](N)C(=O)O; Abu = CC[C@H](N)C(=O)O; PhAc = O=C(Cc1ccccc1)*

System: hGH-RH(1-29)NH2 induced GH release
Assay: Inhibition of GH release in superfused rat pituitary system
Assay type: cell-based
Protocol: The analogs were tested in vitro in a test described earlier (S. Vigh and A. V Schally, Peptides 5:241-[…], 1984) with modification (Z. Rekasi and A. V. Schally, P.N.A.S. 90:2146-2149, 1993).
Briefly, the cells are preincubated with peptides for 9 minutes (3 mL) at various concentrations. Immediately after the incubation, 1 nM hGH-RH(1-29)NH2 is administered for 3 minutes (1 mL) 10 minute response). To check the duration of the antagonistic effect of the analogue, 1 nM hGH-RH(1-29)NH2 is applied 30, 60, 90, and 120 minutes later for 3 minutes [30, 60, 90, 120 min responses]. Net integral values of the GH responses are evaluated. GH responses are compared to and expressed as percent of the original GH response induced by 1 nM GH-RH(1-29)NH2 The effect of the new antagonists are compared to that of [Ac-Tyr^1, D-Arg^2]hGH-RH(1-29)NH2, the “Standard antagonist”.
Rat GH levels in aliquots of undiluted and diluted superfusion samples were measured by double-antibody radioimmunoassay using materials supplied by the National Hormone and Pituitary Program, Baltimore, Md. The results of RIA were analyzed with a computer program developed in our institute (V. Csernus and A. V. Schally, in Neuroendocrine Research Methods, Harwood Academic (Greenstein, B. D. ed., London, pp. 71-109, 1991), hereby incorporated by reference.

[1] = antagonist 30 nM, 1 nM hGH-RH(1-29)NH2 at 0 min
[2] = antagonist 30 nM, 1 nM hGH-RH(1-29)NH2 at 30 min
[3] = antagonist 30 nM, 1 nM hGH-RH(1-29)NH2 at 60 min
[4] = antagonist 30 nM, 1 nM hGH-RH(1-29)NH2 at 90 min
[5] = antagonist 30 nM, 1 nM hGH-RH(1-29)NH2 at 120 min

| Compound | GH response (% of control) 0 min [1] | GH response (% of control) 30 min [2] | GH response (% of control) 60 min [3] | GH response (% of control) 90 min [4] | GH response (% of control) 120 min [5] | endocrine antagonistic potency: inhibition of the GH release stimulated by hGH-RH(1-29)NH2 (in words) (general statement, in vitro and in vivo) | GH response (% of control) 0 min (antagonist 10 nM, 0 min) | GH response (% of control) 30 min (antagonist 10 nM, 30 min) | GH response (% of control) 60 min (antagonist 10 nM, 60 min) | GH response (% of control) 90 min (antagonist 10 nM, 90 min) | GH response (% of control) 120 min (antagonist 10 nM, 120 min) |
| --- | --- | --- | --- | --- | --- | --- | --- | --- | --- | --- | --- |
| [CH3(CH2)14CO-Phe^0, D-Arg^2, Phe(pCl)^6, Arg^9, Abu^15, Nle^27, D-Arg^28, Har^29]hGH-RH(1-29)NH2 [Peptide 16] | 40 % of control | 62 % of control | 78 % of control | 73 % of control | 61 % of control |  |  |  |  |  |  |
| [PhAc-Tyr^1, D-Arg^2, Phe(pCl)^6, Arg^9, Abu^15, Nle^27, D-Arg^28, Har^29]hGH-RH(1-29)NHEt [Peptide 48] | 22 % of control | 21 % of control | 44 % of control | 44 % of control | 47 % of control |  |  |  |  |  |  |
| [PhAc-Tyr^1, D-Arg^2, Phe(pCl)^6, Arg^9, Abu^15, Nle^27, Har^28, D-Arg^29, hGH-RH(1-29)NH2 [Peptide 15] | 28 % of control | 13 % of control | 11 % of control | 36 % of control | 21 % of control |  |  |  |  |  |  |
| [PhAc-Tyr^1, D-Arg^2, Phe(pCl)^6, Cit^8, Arg^9, Abu^15, Nle^27, D-Arg^28, Har^29]hGH-RH(1-29)NH2 [Peptide 21] | 0 % of control | 13 % of control | 33 % of control | 43 % of control | 37 % of control | high endocrine antagonistic potencies |  |  |  |  |  |
| [CH3(CH2)10CO-Tyr^1, D-Arg^2, Phe(pCl)^6, Arg^9, Abu^15, Nle^27, D-Arg^28, Har^29]hGH-RH(1-29)NH2 [Peptide 8] | 37 % of control | 31 % of control | 48 % of control | 44 % of control | 40 % of control |  |  |  |  |  |  |
| [PhAc-Tyr^1, D-Arg^2, Phe(pCl)^5, Har^9, Tyr(Me)^10, Cit^11, Abu^15, Nle^27, D-Arg^28, Har^29]hGH-RH(1-29)NH2 [Peptide 65] | 67 % of control | 80 % of control | 89 % of control | 97 % of control | 79 % of control |  |  |  |  |  |  |
| [HOOC(CH2)14CO-Tyr^1, D-Arg^2, Phe(pCl)^6, Arg^9, Abu^15, Nle^27, D-Arg^28, Har^29]hGH-RH(1-29)NH2 [Peptide 13] | 87 % of control | 77 % of control | 76 % of control | 71 % of control | 73 % of control |  |  |  |  |  |  |
| [PhAc-Tyr^1, D-Arg^2, Phe(pCl)^6, Har^9, Tyr(Me)^10, Abu^15, Nle^27, D-Arg^28, Har^29, Agm^30]hGH-RH(1-30) [Peptide 60] | 73 % of control and 87 % of control | 27 % of control and 29 % of control | 34 % of control and 65 % of control | 56 % of control and 36 % of control | 42 % of control and 63 % of control |  |  |  |  |  |  |
| [PhAc-Tyr^1, D-Arg^2, Phe(pCl)^6, Har^9, Tyr(Me)^10, Orn^12, Abu^15, Nle^27, D-Arg^28, Har^29]hGH-RH(1-29)NHEt [Peptide 50] | 57 % of control | 65 % of control | 69 % of control | 74 % of control | 67 % of control |  |  |  |  |  |  |
| CCCC[C@H](NC(=O)[C@@H](NC(=O)[C@H](CC(=O)O)NC(=O)[C@H](CCC(N)=O)NC(=O)[C@H](CC(C)C)NC(=O)[C@H](CC(C)C)NC(=O)[C@H](CCCCN)NC(=O)[C@H](CCCNC(=N)N)NC(=O)[C@H](C)NC(=O)[C@H](CO)NC(=O)[C@H](CC(C)C)NC(=O)[C@H](CCC(N)=O)NC(=O)[C@H](CC)NC(=O)[C@H](CC(C)C)NC(=O)[C@@H](NC(=O)[C@H](CCCCN)NC(=O)[C@H](CCCNC(=N)N)NC(=O)[C@H](Cc1ccc(O)cc1)NC(=O)[C@H](CCCNC(=N)N)NC(=O)[C@H](CC(N)=O)NC(=O)[C@@H](NC(=O)[C@H](Cc1ccc(Cl)cc1)NC(=O)[C@@H](NC(=O)[C@H](C)NC(=O)[C@H](CC(=O)O)NC(=O)[C@@H](CCCNC(=N)N)NC(=O)[C@H](Cc1ccc(O)cc1)NC(=O)Cc1ccccc1)[C@@H](C)CC)[C@@H](C)O)C(C)C)[C@@H](C)CC)C(=O)N[C@H](CCCNC(=N)N)C(=O)N[C@@H](CCCCNC(=N)N)C(N)=O [JV-1-36, reference compound] (PhAc-Y[dR]DAI[Phe(4-Cl)]TNRYRKVL[Abu]QLSARKLLQDI[Nle][dR][hArg]-NH2; N-terminus and C-terminus assumed) | 36 % of control | 21 % of control | 25 % of control | 29 % of control | 29 % of control |  | 80 % of control | 42 % of control | 60 % of control | 64 % of control | 85 % of control |
| [PhAc-Tyr^1, D-Arg^2, Phe(pCl)^6, Abu^8, Arg^9, Abu^15, Nle^27, D-Arg^28, Har^29]hGH-RH(1-29)NH2 [Peptide 27] | 19 % of control | 15 % of control | 23 % of control | 23 % of control | 61 % of control |  |  |  |  |  |  |
| [Hca-Tyr^1, D-Arg^2, Phe(pCl)^6, Har^9, Tyr(Me)^10, Abu^15, Nle^27, D-Arg^28, Agm^29]hGH-RH(1-29) [Peptide 51] | 64 % of control and 52 % of control and 87 % of control | 36 % of control and 43 % of control and 35 % of control | 31 % of control and 57 % of control and 46 % of control | 56 % of control and 51 % of control | 58 % of control and 61 % of control |  |  |  |  |  |  |
| [PhAc-Tyr^1, D-Arg^2, Phe(pCl)^6, Har^9, Tyr(Me)^10, Har^11, Abu^15, Nle^27, D-Arg^28, Har^29]hGH-RH(1-29)NH2 [Peptide 63] | 53 % of control | 47 % of control | 49 % of control | 51 % of control |  |  |  |  |  |  |  |
| [PhAc-Tyr^1, D-Arg^2, Phe(pCl)^6, Cit^9, Abu^15, Nle^27, Har^28, D-Arg^29]hGH-RH(1-29)NH2 [Peptide 28] | 68 % of control | 7 % of control | 8 % of control | 20 % of control | 34 % of control |  |  |  |  |  |  |
| [CH3(CH2)14COD-Phe^0, D-Arg^2, Phe(pCl)^6, Arg^9, Abu^15, Nle^27, D-Arg^28, Har^29]hGH-RH(1-29)NH2 [Peptide 17] | 29 % of control | 51 % of control | 68 % of control | 73 % of control | 61 % of control |  |  |  |  |  |  |
| [Hca-Tyr^1, D-Arg^2, Phe(pCl)^6, Har^9, Tyr(Me)^10, Abu^15, Nle^27, D-Arg^28, Har^29]hGH-RH(1-29)NH2 [Peptide 45] | 91 % of control and 100 % of control | 100 % of control | 100 % of control | 100 % of control | 99 % of control |  |  |  |  |  |  |
| [CH3(CH2)4CO-Tyr^1, D-Arg^2, Phe(pCl)^6, Arg^9, Abu^15, Nle^27, D-Arg^28, Har^29]hGH-RH(1-29)NH2 [Peptide 2] | 18 % of control | 13 % of control | 18 % of control | 25 % of control | 51 % of control |  |  |  |  |  |  |
| [PhAc-Tyr^1, D-Arg^2, Phe(pCl)^6, Arg^9, Cha^10, Abu^15, Nle^27, D-Arg^28, Har^29]hGH-RH(1-29)NH2 [Peptide 33] | 97 % of control | 89 % of control | 78 % of control | 97 % of control | 82 % of control |  |  |  |  |  |  |
